Values quoted from earlier work, collected in USRE41489E1 (priority 1997, dated 2010).
Read-outs that look alike come from different tables or passages of the source.

Key:
δ receptors = δ receptors (Homo sapiens, UniProt P41143)
[1] = conscious postoperative patients
[2] = parenteral, on a weight basis
[3] = estimated
[4] = rats
[5] = not given; remark: listed apart in the source
[6] = intravenous single dose of about 0.3 mg

δ receptors, sequence (P41143 whole entry): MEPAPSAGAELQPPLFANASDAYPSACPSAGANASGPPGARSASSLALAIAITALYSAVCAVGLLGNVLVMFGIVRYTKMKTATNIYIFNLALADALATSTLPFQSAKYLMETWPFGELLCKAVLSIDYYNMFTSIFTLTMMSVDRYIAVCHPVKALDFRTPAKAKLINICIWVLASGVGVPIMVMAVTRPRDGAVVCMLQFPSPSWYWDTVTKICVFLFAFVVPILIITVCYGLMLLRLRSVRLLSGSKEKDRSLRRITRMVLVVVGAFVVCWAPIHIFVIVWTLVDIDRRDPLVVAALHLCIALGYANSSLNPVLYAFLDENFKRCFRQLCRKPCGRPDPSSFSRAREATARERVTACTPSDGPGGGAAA

CO[C@]12CC[C@@]3(C[C@@H]1[C@](C)(O)C(C)(C)C)[C@H]1Cc4ccc(O)c5c4[C@@]3(CCN1CC1CC1)[C@H]2O5 [buprenorphine, 21-cyclopropyl-7-[(S)-1-hydroxy-1,2,2-trimethylpropyl]-6,14-endo-ethano-6,7,8,14-tetrahydrooripavine]
binding affinity to δ receptors (δ receptors): lower affinity
total plasma clearance [1]: approximately 1.28 l/minute
analgesic potency relative to meperidine [2]: about 600 times
analgesic potency relative to pentazocine [2]: about 200 times
oral bioavailability [3]: 15%
time to highest concentrations in the liver ([4]; intramuscular administration): ≤ 40 min
time to highest concentrations in the liver ([4]; oral administration): ≤ 10 min
Cmax (0.4 mg sublingual single dose): 0.50 ± 0.06 ng/mL
Tmax (0.4 mg sublingual single dose): 3.5 ± 0.667 h
systemic availability (0.4 mg sublingual single dose): 57.7%
Cmax (0.8 mg sublingual single dose): 1.04 ± 0.27 ng/mL
Tmax (0.8 mg sublingual single dose): 3.2 ± 0.817 h
systemic availability (0.8 mg sublingual single dose): 54.1%
mean peak plasma buprenorphine concentration ([5]; intramuscular second 0.3-mg dose 3 hours after the initial intravenous dose): about 3.6 ng/ml
plasma concentration ([5]; intramuscular second 0.3-mg dose, after about 3 hours): about 0.4 ng/ml
plasma concentration ([5]; intravenous about 0.3 mg, after about 5 minutes): about 9 ng/ml
plasma concentration ([5]; intravenous about 0.3 mg, after about 3 hours): about 0.4 ng/ml
mean peak plasma drug concentration [5, 6]: about 18 ng/ml
time of mean peak plasma concentration [5, 6]: ≤ 2 min
bound to plasma proteins (plasma proteins): approximately 96%
